Among the test systems are HCT-116 colon; HS 578T breast; HT29 colon; IGROV1 ovarian; MDA-MB-435; MDA-N; OVCAR-4 ovarian; SNB-75 CNS; SW-620 colon; KM12 colon.
Test in all cases: NCI tumour cell line growth inhibition, 48 h

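48-hour exposure; five concentrations; linearly interpolated endpoints. GI50 marks 50% less growth. TGI denotes the concentration required for complete inhibition of growth.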 Some results are limits rather than exact numbers.

Take `Cc1nc2[nH]ncn2c(=O)c1CCO`: the TGI with HCT-116 colon, in the experiment with HS 578T breast, in the experiment with HT29 colon, in the experiment on IGROV1 ovarian, in the experiment on MDA-MB-435 and with MDA-N was more than 10 µM throughout. For the same compound, the TGI with OVCAR-4 ovarian, in the experiment with SNB-75 CNS and in the experiment with SW-620 colon was more than 10 µM in each case.

Take `COc1ccc(C2C3CCCC(C3=O)C(c3ccc(OC)cc3)N2N=O)cc1` (stereo unspecified): the TGI in the experiment with HCT-116 colon is more than 74.9 µM; in the experiment with HT29 colon it was 51.2 µM; with IGROV1 ovarian, 97.5 µM; in the experiment on KM12 colon, more than 74.1 µM; in the experiment with OVCAR-4 ovarian it was 45 µM; in the experiment on SNB-75 CNS, 62.4 µM. Further, in the experiment on SW-620 colon, the TGI was more than 100 µM.

Regarding `O=C(NCCNc1nccc(-c2c(-c3cccc(O)c3)nc3sccn23)n1)c1ccccc1`, the GI50 in the experiment on HCT-116 colon is 4.82 µM; in the experiment on HS 578T breast it was 4.86 µM; in the experiment with HT29 colon it was 6.8 µM; in the experiment on IGROV1 ovarian, 3.61 µM; in the experiment with KM12 colon, 12.1 µM; in the experiment with MDA-MB-435 it was 0.578 µM. For the same compound, the GI50 is 13.9 µM in the experiment with OVCAR-4 ovarian, 3.27 µM with SNB-75 CNS and 18 µM with SW-620 colon. Further, the TGI is 17.5 µM with HCT-116 colon; 38.3 µM in the experiment with HS 578T breast; 38.3 µM with HT29 colon; 50.9 µM in the experiment with IGROV1 ovarian; 28.5 µM with KM12 colon; 12.8 µM in the experiment on MDA-MB-435. Besides, the values for the TGI in the experiment on OVCAR-4 ovarian, in the experiment with SNB-75 CNS and with SW-620 colon were 84.6 µM, 28.1 µM and 79.5 µM, respectively.

Take `COc1ccc(N2C(=O)C3c4[nH]c5ccc(F)cc5c4C4CCC(C(C)(C)C)CC4C3C2=O)cc1` (stereo unspecified): the TGI in the experiment on HCT-116 colon, with HS 578T breast, with HT29 colon, in the experiment on IGROV1 ovarian, in the experiment with KM12 colon and in the experiment with MDA-MB-435 was more than 10 µM throughout. The TGI in the experiment on MDA-N was more than 10 µM; in the experiment on OVCAR-4 ovarian, more than 10 µM; with SNB-75 CNS it was 4.87 µM; in the experiment with SW-620 colon, more than 10 µM.

On to `CCOC(=O)Cc1cnc(NC(NC(=O)CC)(C(F)(F)F)C(F)(F)F)s1`, for which the TGI in the experiment with HCT-116 colon, with HS 578T breast, in the experiment with HT29 colon, in the experiment on KM12 colon, in the experiment with MDA-MB-435 and in the experiment on MDA-N was more than 100 µM each time. This compound returned a TGI with SNB-75 CNS of more than 100 µM.

The values above are taken from PubChem BioAssay (NCI).
